Drawing on ChEMBL document CHEMBL1151661, “Inhibitory effect of tannins on reverse transcriptase from RNA tumor virus” (J Nat Prod, 1985), this text covers Activity for 15 molecules.

What all share (set-up): scale not given: the % may be the effect or the level left
Experiment [1] has as its system Avian myeloblastosis virus. The experiment can be described thus: Inhibition of AMV reverse transcriptase activity assessed as incorporation of dGMP in poly(rC)-oligo(dG) at 100 uM.
Experiment [2] concerns Avian myeloblastosis virus. The experiment can be described thus: Inhibition of AMV reverse transcriptase activity assessed as incorporation of dGMP in poly(rC)-oligo(dG) at 1000 uM.
Experiment [3] concerns Avian myeloblastosis virus. As to the kind of experiment: Inhibition of AMV reverse transcriptase activity assessed as incorporation of dTMP in poly(rA)-oligo(dT) at 1 uM.
For experiment [4], the system named is Avian myeloblastosis virus. As to the kind of experiment: Inhibition of AMV reverse transcriptase activity assessed as incorporation of dTMP in poly(rA)-oligo(dT) at 10 uM.
The subject of experiment [5] is Avian myeloblastosis virus. The experiment can be described thus: Inhibition of AMV reverse transcriptase activity assessed as incorporation of dTMP in poly(rA)-oligo(dT) at 100 uM.
Experiment [6] deals with Avian myeloblastosis virus. The experiment can be described thus: Inhibition of AMV reverse transcriptase activity assessed as incorporation of dTMP in poly(rA)-oligo(dT) at 1000 uM.
For experiment [7], the system named is Avian myeloblastosis virus. The experiment can be described thus: Inhibition of AMV reverse transcriptase activity assessed as incorporation of dGMP in poly(rC)-oligo(dG) at 0.1 uM.
Experiment [8] has as its system Avian myeloblastosis virus. As to the kind of experiment: Inhibition of AMV reverse transcriptase activity assessed as incorporation of dGMP in poly(rC)-oligo(dG) at 1 uM.
Experiment [9] concerns Avian myeloblastosis virus. As to the kind of experiment: Inhibition of AMV reverse transcriptase activity assessed as incorporation of dGMP in poly(rC)-oligo(dG) at 10 uM.
The test system of experiment [10] is Avian myeloblastosis virus. As to the kind of experiment: Inhibition of AMV reverse transcriptase activity assessed as incorporation of dTMP in poly(rA)-oligo(dT) at 0.1 uM.

As to `COc1cc2c[n+](C)c3c4cc5c(cc4ccc3c2cc1OC)OCO5`, the Activity in experiment [1] worked out at 5%; in experiment [2], 2%; in experiment [3], 102%; in experiment [4], 11%; in [5], 1%; in experiment [6] it was 1%. In addition, the Activity is 116% in [7], 85% in experiment [8], 88% in [9] and 85% in experiment [10].
Regarding `O=C(O)c1cc(O)c(O)c(O)c1`, the Activity in experiment [1] turned out to be 91%; in experiment [2], 98%; in experiment [3], 93%; in experiment [4], 75%; in experiment [5] it was 75%; in experiment [6], 78%. Besides, the Activity in experiment [7] is 122%; in [8] it was 103%; in experiment [9], 99%; in experiment [10], 84%.
With `O=c1oc2c(O)c(O)cc3c(=O)oc4c(O)c(O)cc1c4c23`, the Activity in [1] was found to be 20%; in [2] it was 3%; in experiment [3], 77%; in [4], 45%; in [5] it was 18%; in experiment [6] it was 0%. Further, the Activity in [7] is 71%; in experiment [8], 80%; in experiment [9], 49%; in experiment [10], 93%.
As to `O=C(O[C@@H]1O[C@@H]2COC(=O)c3cc(O)c(O)c(O)c3-c3c(cc(O)c(O)c3O)C(=O)O[C@H]([C@H]1O)[C@@H]2O)c1cc(O)c(O)c(O)c1`, the Activity in [1] is 30%; in [2], 0%; in experiment [3], 92%; in [4], 88%; in experiment [5] it was 25%; in [6] it was 3%. The Activity was 92% in experiment [7], 72% in [8], 64% in experiment [9] and 88% in experiment [10].
`O=C(OC[C@H]1O[C@@H](OC(=O)c2cc(O)c(O)c(O)c2)[C@H](OC(=O)c2cc(O)c(O)c(O)c2)[C@@H](OC(=O)c2cc(O)c(O)c(O)c2)[C@@H]1OC(=O)c1cc(O)c(O)c(O)c1)c1cc(O)c(O)c(O)c1`: the Activity in experiment [1] stood at 27%; in experiment [2] it was 15%; in experiment [3], 39%; in experiment [4], 30%; in [5], 25%; in experiment [6] it was 7%. The Activity in [7] amounted to 80%; in experiment [8], 62%; in [9] it was 44%; in experiment [10], 67%.
Consider `O=C[C@H](OC(=O)c1cc(O)c(O)c(O)c1)[C@@H](OC(=O)c1cc(O)c(O)c(O)c1)[C@@H]1OC(=O)c2cc(O)c(O)c(O)c2-c2c(cc(Oc3c(C(=O)O[C@@H](C=O)[C@@H](OC(=O)c4cc(O)c(O)c(O)c4)[C@@H]4OC(=O)c5cc(O)c(O)c(O)c5-c5c(cc(O)c(O)c5O)C(=O)OC[C@H]4O)cc(O)c(O)c3O)c(O)c2O)C(=O)OC[C@H]1O`, for which the Activity in experiment [1] was determined as 10%; in experiment [2] it was 15%; in [3], 19%; in [4], 4%; in experiment [5] it was 6%; in experiment [6], 6%. The Activity in [7] worked out at 105%; in experiment [8] it was 76%; in experiment [9], 22%; in [10], 82%.
For `O=C(O[C@@H]1O[C@@H]2COC(=O)c3cc(Oc4c(C(=O)O[C@@H]5O[C@@H]6COC(=O)c7cc(O)c(O)c(O)c7-c7c(cc(O)c(O)c7O)C(=O)O[C@H]6[C@H](OC(=O)c6cc(O)c(O)c(O)c6)[C@H]5OC(=O)c5cc(O)c(O)c(O)c5)cc(O)c(O)c4O)c(O)c(O)c3-c3c(cc(O)c(O)c3O)C(=O)O[C@H]2[C@H](OC(=O)c2cc(O)c(O)c(O)c2)[C@H]1OC(=O)c1cc(O)c(O)c(O)c1)c1cc(O)c(O)c(O)c1`, the Activity was found to be 12% in experiment [1]; 2% in [2]; 16% in experiment [3]; 7% in [4]; 5% in [5]; 6% in experiment [6]. Moreover, the Activity came out at 111% in experiment [7], 54% in experiment [8], 12% in experiment [9] and 55% in experiment [10].
As to `O=C[C@@H]1OC(=O)c2c3c(O)c(O)c(O)c2-c2c(cc(O)c(O)c2O)C(=O)O[C@H]1[C@@H]1OC(=O)c2c(c(O)c(O)c(O)c2-c2c(cc(O)c(O)c2O)C(=O)O[C@H]1COC(=O)c1cc(O)c(O)c(O)c1)O[C@H]1[C@@H]2OC(=O)c4cc(O)c(O)c(O)c4-c4c(cc(O)c(O)c4O)C(=O)O[C@H]2[C@H](OC(=O)c2cc(O)c(O)c(O)c2)O[C@@H]1CO3`, the Activity in experiment [1] was determined as 14%; in experiment [2], 20%; in [3] it was 24%; in experiment [4], 4%; in experiment [5], 5%; in experiment [6], 3%. The Activity in experiment [7] came to 106%; in experiment [8], 73%; in experiment [9], 22%; in experiment [10], 66%.
On to `O=C(O[C@@H]1O[C@@H]2COC(=O)c3cc(O)c(O)c(O)c3-c3c(cc(O)c(O)c3O)C(=O)O[C@H]2[C@H](OC(=O)c2cc(O)c(O)c(O)c2)[C@H]1OC(=O)c1cc(O)c(O)c(O)c1)c1cc(O)c(O)c(Oc2c(C(=O)O[C@H]3O[C@@H]4COC(=O)c5cc(O)c(O)c(O)c5-c5c(cc(O)c(O)c5O)C(=O)O[C@H]4[C@H](OC(=O)c4cc(O)c(O)c(O)c4)[C@H]3OC(=O)c3cc(O)c(O)c(O)c3)cc(O)c(O)c2O)c1`, for which the Activity in [1] was found to be 8%; in [2], 1%; in experiment [3], 25%; in experiment [4], 11%; in experiment [5] it was 4%; in [6], 1%. Further, the Activity in [7] was determined as 102%; in experiment [8], 68%; in experiment [9], 13%; in experiment [10], 73%.
On to `O=C1OC[C@H]2OC(O)[C@@H]3OC(=O)c4cc(O)c(O)c(O)c4-c4c(cc(O)c(O)c4O)C(=O)O[C@H]3[C@@H]2OC(=O)c2cc(O)c(O)c(O)c2-c2c1cc(O)c(O)c2O` (stereo not given in full), for which the Activity is 7% in experiment [1]; 10% in experiment [2]; 51% in [3]; 15% in [4]; 17% in experiment [5]; 4% in [6]. Also, the Activity in experiment [7] is 80%; in experiment [8], 73%; in [9], 41%; in [10] it was 88%.
With `O=C(O)C[C@H]1C(=O)O[C@H]2[C@H](OC(=O)c3cc(O)c(O)c(O)c3)[C@@H](OC(=O)c3cc(O)c(O)c4c3[C@H]1[C@H](O)C(=O)O4)[C@H](OC(=O)c1cc(O)c(O)c(O)c1)O[C@@H]2COC(=O)c1cc(O)c(O)c(O)c1`, the Activity in experiment [1] came out at 27%; in [2], 1%; in [3], 71%; in experiment [4], 22%; in experiment [5], 24%; in experiment [6] it was 8%. Further, the Activity in experiment [7] is 75%; in experiment [8], 67%; in experiment [9], 46%; in [10], 109%.
Consider `O=C1O[C@@H]2[C@@H](OC(=O)c3cc(O)c(O)c(O)c3-c3c1cc(O)c(O)c3O)[C@H](O)O[C@@H]1COC(=O)c3cc(O)c(O)c(O)c3-c3c(O)c(O)c4oc(=O)c5c(c(O)c(O)c6oc(=O)c3c4c65)-c3c(cc(O)c(O)c3O)C(=O)O[C@@H]21`, for which the Activity in [1] came out at 9%; in experiment [2] it was 4%; in experiment [3], 22%; in experiment [4], 19%; in [5] it was 11%; in experiment [6], 2%. For the same molecule, the Activity in [7] came out at 85%; in [8], 76%; in [9] it was 18%; in [10], 85%.
Turning to `O=C1OC[C@H]2O[C@@H](O)[C@H](O)[C@@H](O)[C@@H]2OC(=O)c2cc(O)c(O)c(O)c2-c2c(O)c(O)c3oc(=O)c4c(c(O)c(O)c5oc(=O)c2c3c54)-c2c1cc(O)c(O)c2O`, the Activity in [1] was 31%; in [2], 6%; in experiment [3], 62%; in [4] it was 35%; in [5], 8%; in experiment [6], 1%. Also, the Activity was determined as 105% in [7], 109% in experiment [8], 64% in experiment [9] and 119% in [10].
Take `Oc1cc(O)c2c(c1)O[C@H](c1ccc(O)c(O)c1)[C@H](O)[C@H]2c1c(O)cc(O)c2c1O[C@H](c1ccc(O)c(O)c1)[C@H](O)C2`: the Activity came to 64% in experiment [1]; 9% in experiment [2]; 116% in experiment [3]; 97% in experiment [4]; 98% in experiment [5]; 55% in [6]. Besides, the Activity came to 85% in experiment [7], 93% in experiment [8], 80% in experiment [9] and 102% in experiment [10].
As to `O=C(O)C[C@@H]1C(=O)O[C@H]2[C@@H]3OC(=O)c4cc(O)c(O)c(O)c4-c4c(cc(O)c(O)c4O)C(=O)OC[C@H]2O[C@@H](OC(=O)c2cc(O)c(O)c(O)c2)[C@@H]3OC(=O)c2cc(O)c(O)c3c2[C@H]1[C@H](O)C(=O)O3`, the Activity was determined as 68% in experiment [1]; 8% in [2]; 90% in [3]; 48% in experiment [4]; 31% in experiment [5]; 6% in experiment [6]. For the same molecule, the Activity stood at 94% in [7], 67% in experiment [8], 74% in experiment [9] and 106% in [10].
